Results as given in article PMC7606179 (Acta Pharmaceutica Sinica. B, 2020).
Entries after “also recorded” stand apart in the source; their conditions may differ.

How the values were obtained:
[1] = target: Oseltamivir resistant (with H274Y mutation) neuraminidase (Influenza A virus, UniProt P03468, H260Y); assay type: biochemical, recombinant PR8 virus with H274Y mutation
[2] = system: PR8 resistant recombinant virus with H274Y mutation in MDCK cells; assay type: cell-based

| SMILES | NA inhibitory activity on oseltamivir resistant NA [1] | further results |
| --- | --- | --- |
| COC(=O)C1CC(=O)c2oc(=O)c3cc(O)c(O)c(O)c3c21 (stereo not shown) [B15, Methyl brevifolin carboxylate] | can obviously inhibit NA activities | – |
| O=c1oc2c(O)c(O)cc3c(=O)oc4c(O)c(O)cc1c4c23 [B21, Ellagic acid] | can obviously inhibit NA activities | – |
| O=C(/C=C/c1ccc(O)cc1)OC[C@H]1O[C@@H](Oc2c(-c3ccc(O)cc3)oc3cc(O)cc(O)c3c2=O)[C@H](O)[C@@H](O)[C@@H]1O [B23, Tiliroside] | – | Effect on replication of oseltamivir resistant (H274Y) PR8 virus in MDCK cells [2]: obviously reduce; also recorded: greatly reduce |
| CCOC(=O)C1=C[C@@H](OC(CC)CC)[C@H](NC(C)=O)[C@@H](N)C1 [Oseltamivir] | – | Anti-virus effect on resistant virus with NA H274Y mutation in MDCK cells [2]: didn't show obvious anti-virus effects |
